In PubChem BioAssay (NCI):
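Method: 48-hour compound exposure of cells in 96-well plates, five concentrations, linear interpolation of endpoints. The concentration for full growth arrest is given as TGI.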

Assays:
Assay in all cases: growth of human tumour cells (NCI), 48 h
SF-295 CNS = system: SF-295 CNS
NCI-H460 lung = system: NCI-H460 lung
RXF-631 renal = system: RXF-631 renal
LOX IMVI melanoma = system: LOX IMVI melanoma
U251 CNS = system: U251 CNS
DLD-1 colon = system: DLD-1 colon
DMS 273 small cell lung = system: DMS 273 small cell lung
IGROV1 ovarian = system: IGROV1 ovarian
KM12 colon = system: KM12 colon
SK-OV-3 ovarian = system: SK-OV-3 ovarian
UO-31 renal = system: UO-31 renal
HOP-62 NSCLC = system: HOP-62 NSCLC
KM20L2 colon = system: KM20L2 colon
COLO 205 colon = system: COLO 205 colon
TK-10 renal = system: TK-10 renal
M14 melanoma = system: M14 melanoma
SNB-75 CNS = system: SNB-75 CNS
HT29 colon = system: HT29 colon
XF 498 CNS = system: XF 498 CNS
EKVX NSCLC = system: EKVX NSCLC
HCT-15 colon = system: HCT-15 colon
OVCAR-4 ovarian = system: OVCAR-4 ovarian
MOLT-4 leukemia = system: MOLT-4 leukemia
SF-539 CNS = system: SF-539 CNS
RPMI-8226 leukemia = system: RPMI-8226 leukemia
SW-620 colon = system: SW-620 colon
HOP-18 NSCLC = system: HOP-18 NSCLC
SNB-19 CNS = system: SNB-19 CNS
M19-MEL melanoma = system: M19-MEL melanoma
HCC-2998 colon = system: HCC-2998 colon
OVCAR-3 ovarian = system: OVCAR-3 ovarian
A549 NSCLC = system: A549 NSCLC
OVCAR-8 ovarian = system: OVCAR-8 ovarian
UACC-62 melanoma = system: UACC-62 melanoma
MALME-3M melanoma = system: MALME-3M melanoma
OVCAR-5 ovarian = system: OVCAR-5 ovarian
786-0 renal = system: 786-0 renal
SF-268 CNS = system: SF-268 CNS
HCT-116 colon = system: HCT-116 colon
NCI-H23 lung = system: NCI-H23 lung
NCI-H226 lung = system: NCI-H226 lung
CCRF-CEM leukemia = system: CCRF-CEM leukemia
A498 renal = system: A498 renal
HOP-92 NSCLC = system: HOP-92 NSCLC
SNB-78 CNS = system: SNB-78 CNS
ACHN renal = system: ACHN renal
SN12C renal = system: SN12C renal
UACC-257 melanoma = system: UACC-257 melanoma
CAKI-1 renal = system: CAKI-1 renal
K-562 leukemia = system: K-562 leukemia
DMS 114 small cell lung = system: DMS 114 small cell lung
SK-MEL-2 melanoma = system: SK-MEL-2 melanoma
RXF 393 renal = system: RXF 393 renal
NCI-H522 lung = system: NCI-H522 lung
SK-MEL-5 melanoma = system: SK-MEL-5 melanoma
LXFL 529 NSCLC = system: LXFL 529 NSCLC
HL-60(TB) leukemia = system: HL-60(TB) leukemia
SR leukemia = system: SR leukemia

For `O=c1[nH]nc2ccccc2c1Cl`, the TGI (SF-295 CNS) was 46.9 µM, the TGI (NCI-H460 lung) was 46.2 µM and the TGI (RXF-631 renal) was 28.4 µM. The TGI (LOX IMVI melanoma) was 37.5 µM, the TGI (U251 CNS) was 29.2 µM and the TGI (DLD-1 colon) was 22.8 µM. It also gave a TGI (DMS 273 small cell lung) of 35.5 µM, a TGI (IGROV1 ovarian) of 28.5 µM and a TGI (KM12 colon) of 26.6 µM. The TGI (SK-OV-3 ovarian) was 33.5 µM, the TGI (UO-31 renal) was 28.2 µM and the TGI (HOP-62 NSCLC) was 40.7 µM. For the same compound, the TGI (KM20L2 colon) was 29.5 µM, the TGI (COLO 205 colon) was 23.4 µM and the TGI (TK-10 renal) was 33 µM. For the same compound, the TGI (M14 melanoma) was 25.6 µM, the TGI (SNB-75 CNS) was 47.1 µM and the TGI (HT29 colon) was 23.6 µM. It also gave a TGI (XF 498 CNS) of 28.1 µM, a TGI (EKVX NSCLC) of 15.5 µM and a TGI (HCT-15 colon) of 25.3 µM. It also gave a TGI (OVCAR-4 ovarian) of 23.8 µM, a TGI (MOLT-4 leukemia) of 36.8 µM and a TGI (SF-539 CNS) of 29.9 µM. It also gave a TGI (RPMI-8226 leukemia) of 8.87 µM, a TGI (SW-620 colon) of 34.2 µM and a TGI (HOP-18 NSCLC) of 29.1 µM. For the same compound, the TGI (SNB-19 CNS) was 30.5 µM, the TGI (M19-MEL melanoma) was 20.1 µM and the TGI (HCC-2998 colon) was 7.27 µM. The TGI (OVCAR-3 ovarian) was 6.21 µM, the TGI (A549 NSCLC) was 91.5 µM and the TGI (OVCAR-8 ovarian) was 54.3 µM. For the same compound, the TGI (UACC-62 melanoma) was 25.6 µM, the TGI (MALME-3M melanoma) was 31 µM and the TGI (OVCAR-5 ovarian) was 33.9 µM. It also gave a TGI (786-0 renal) of 28.4 µM, a TGI (SF-268 CNS) of 41.9 µM and a TGI (HCT-116 colon) of 29.9 µM. It also gave a TGI (NCI-H23 lung) of 35.9 µM, a TGI (NCI-H226 lung) of 52.8 µM and a TGI (CCRF-CEM leukemia) of 34.9 µM. For the same compound, the TGI (A498 renal) was 33.2 µM, the TGI (HOP-92 NSCLC) was 12.3 µM and the TGI (SNB-78 CNS) was 41.1 µM. The TGI (ACHN renal) was 30.8 µM, the TGI (SN12C renal) was 34.2 µM and the TGI (UACC-257 melanoma) was 29.7 µM. For the same compound, the TGI (CAKI-1 renal) was 12 µM, the TGI (K-562 leukemia) was 24.7 µM and the TGI (DMS 114 small cell lung) was 18.9 µM. For the same compound, the TGI (SK-MEL-2 melanoma) was 33.6 µM.

`COc1c(OC)c(N)c2cc(C)c(=O)c(C)cc2c1N` was tested, and the TGI (SF-295 CNS) was > 100 µM, the TGI (NCI-H460 lung) was > 100 µM and the TGI (RXF 393 renal) was > 100 µM. The TGI (LOX IMVI melanoma) was > 100 µM, the TGI (U251 CNS) was > 100 µM and the TGI (DLD-1 colon) was > 100 µM. For the same compound, the TGI (DMS 273 small cell lung) was > 100 µM, the TGI (IGROV1 ovarian) was > 100 µM and the TGI (KM12 colon) was > 100 µM. The TGI (SK-OV-3 ovarian) was > 100 µM, the TGI (UO-31 renal) was > 100 µM and the TGI (HOP-62 NSCLC) was > 100 µM. The TGI (KM20L2 colon) was > 100 µM, the TGI (NCI-H522 lung) was > 100 µM and the TGI (COLO 205 colon) was > 100 µM. For the same compound, the TGI (TK-10 renal) was > 100 µM, the TGI (M14 melanoma) was > 100 µM and the TGI (SNB-75 CNS) was > 100 µM. For the same compound, the TGI (SK-MEL-5 melanoma) was > 100 µM, the TGI (HT29 colon) was > 100 µM and the TGI (XF 498 CNS) was > 100 µM. For the same compound, the TGI (EKVX NSCLC) was > 100 µM, the TGI (HCT-15 colon) was > 100 µM and the TGI (OVCAR-4 ovarian) was > 100 µM. The TGI (MOLT-4 leukemia) was > 100 µM, the TGI (SF-539 CNS) was > 100 µM and the TGI (RPMI-8226 leukemia) was > 100 µM. The TGI (SW-620 colon) was 35 µM, the TGI (HOP-18 NSCLC) was > 100 µM and the TGI (SNB-19 CNS) was > 100 µM. The TGI (M19-MEL melanoma) was > 100 µM, the TGI (HCC-2998 colon) was > 100 µM and the TGI (LXFL 529 NSCLC) was > 100 µM. The TGI (OVCAR-3 ovarian) was > 100 µM, the TGI (A549 NSCLC) was > 100 µM and the TGI (OVCAR-8 ovarian) was > 100 µM. For the same compound, the TGI (UACC-62 melanoma) was > 100 µM, the TGI (MALME-3M melanoma) was > 100 µM and the TGI (OVCAR-5 ovarian) was > 100 µM. For the same compound, the TGI (786-0 renal) was > 100 µM, the TGI (SF-268 CNS) was > 100 µM and the TGI (HCT-116 colon) was > 100 µM. For the same compound, the TGI (NCI-H23 lung) was > 100 µM, the TGI (CCRF-CEM leukemia) was > 100 µM and the TGI (A498 renal) was > 100 µM. For the same compound, the TGI (HOP-92 NSCLC) was > 100 µM, the TGI (SNB-78 CNS) was > 100 µM and the TGI (ACHN renal) was > 100 µM. The TGI (SN12C renal) was > 100 µM, the TGI (UACC-257 melanoma) was > 100 µM and the TGI (CAKI-1 renal) was > 100 µM. For the same compound, the TGI (K-562 leukemia) was > 100 µM, the TGI (DMS 114 small cell lung) was > 100 µM and the TGI (SK-MEL-2 melanoma) was > 100 µM. For the same compound, the TGI (HL-60(TB) leukemia) was > 100 µM and the TGI (SR leukemia) was 45.7 µM.
